Measurements taken from patent publication US10464907B2, “Compound having HSP90 inhibitory activity or pharmaceutically acceptable salt thereof, and medical use thereof” (priority 2016, dated 2019).
Like-named read-outs stand apart in the source and are kept apart here.

Experiments:
H1975 cells = assay: MTS cell viability in H1975 cells resistant to Gefitinib; assay type: cell-based; conditions: read-out: H1975 (EC50; μM)
Method: To confirm the cell viability according to the concentration of the compound synthesized in H1975 cells (ATCC) resistant to Gefitinib, MTS [3-(4,5-dimethylthiazol-2-yl)-5-[…]carboxymethoxyphenyl)-2-(4-sulfophenyl)-2H-tetrazolium, inner salt] analysis was performed. When the cells were cultured so as to occupy 80% of the bottom of the culture dish, the cells were detached and diluted with RPMI 1640 medium to a concentration of 1.5×10^3 cells/well. Each 100 μL of the suspension was added to each well of a 96-well plate and cultured for 14 hours. Then, the medium was changed to the culture solution treated with compound of each concentration each concentration (1a-g: 0, 1, 5, 10, 30, 50 or 100 μM, 14a-I, 16a, b, 21a-f: 0, 0.01, 0.1, 1, 5, 10, 30, 50, 70 or 100 μM), and cultured for 3 days. Each 20 μL of the MTS solution was dispensed into each well and reacted for 1 hour at 37° C. in an incubator supplied with 5% CO2.

HSP90α = HSP90α (Homo sapiens (Human), UniProt P07900); assay: Fluorescence polarization assay, binding ability to HSP90, benzamide compounds; conditions: GA-FITC 100 nM; read-out: HSP90 FP) (IC50; nM)
Method: 1 M dithiothreitol (DTT), 10 mg/m: BGG (bovine gamma globulin) were added to hexafluorobenzene (HFB) buffer (20 mM HEPES pH 7.3, 50 mM KCl, 5 mM MgCl2, 20 mM Na2MoO4, 0.01% NP4O, 3rd distilled water) and mixed. Then, 100 nM […] (GA)-FITC (Fluorescein isothiocyanate) was added and reacted at room temperature for 10 minutes. Each 100 μL of the mixture was dispensed into the control wells of a 96-well plate, 2 μL of HSP90α was added to the remaining mixture, and each 100 μL of the other wells was dispensed. […] The binding ability of the compound to HSP90 was expressed as mP (millipolarization unit=1000 mP unit).

LogP = assay type: physicochemical; conditions: called measured values of LogP
Method: All experimental data were analyzed using Prism software (version 5.0, Graphpad Software, San Diego, Calif.). In addition, tPSA (Topological Polar Surface Area) calculated using Chemdraw software and the measured values of LogP are shown in Tables 1 and 2 below.

H1975 = assay: MTS cell proliferation / survival assay; assay type: cell-based; conditions: Homo sapiens; for inhibition at 10 µM: NCI-H1975, read-out: Inhibition rate at 10 μM (%); for inhibition at 30 µM: NCI-H1975, read-out: Inhibition rate at 30 μM (%)
Method: Sk-Br3 (Korean cell line bank), a breast cancer cell, and H1975 cell (ATCC), a nonsmall cell lung cancer, were cultured in RPMI 1640 containing 25 mM HEPES (4-(2-hydroxyethyl)-1-piperazineethanesulfonic acid) and RPMI 1640 containing L-glutamine (containing streptomycin ([…]), penicillin (100 units/mL) and 10% fetal bovine serum (FBS)).
The cells were cultured under a humidified atmosphere of 37° C. and 5% CO2.
Next, non-metastatic lung cancer cells were treated with Compound 17 and the cell proliferation rate or cell survival rate was measured by MTS [3-(4,5-dimethylthiazol-2-yl)-5-(3-carboxymethoxyphenyl)-2-2H-tetrazolium, inner salt] analysis.
Cells were dispensed in 96-well plates at 3000 cell/well (Sk-Br3) and 2000 cell/well (H1975), and 100 μL of the medium was added per well and then was incubated overnight.
Cell proliferation was evaluated using the Promega Cell Titer 96 Aqueous One Solution cell proliferation assay.
After compound and cell culture, 20 μL of assay substrate solution was added to each well and incubated at 37° C. for an additional 1 hour.
Cell proliferation was confirmed by measuring the absorbance at 490 nm using a microplate reader (Tecan Infinite F200 Proplate reader).

## Cc1ccc(CN(C)C(=O)c2cc(Cl)c(O)cc2O)cc1 [Compound 16b, 5-chloro-2,4-dihydroxy-N-methyl-N-(4-methylbenzyl)benzamide]
H1975 cells; Homo sapiens, NCI-H1975, 72 h
  EC50: 34.3 µM
HSP90α
  IC50: 558 nM

## O=C(c1cc(Cl)c(O)cc1O)N1CCCCC1 [Compound 11b, (5-chloro-2,4-dihydroxyphenyl) (piperidin-1-yl)methanone]
LogP
  logP: 1.69
H1975
  inhibition at 10 µM: 7.6%
  inhibition at 30 µM: 26.3%

## CC(C)c1cc(C(=O)N(C)Cc2ccccc2)c(O)cc1O [Compound 21g, N-benzyl-2,4-dihydroxy-5-isopropyl-N-methylbenzamide]
H1975 cells; Homo sapiens, NCI-H1975, 72 h
  EC50: 4.1 µM

## O=C(c1cc(Cl)c(O)cc1O)N1CCNCC1 [Compound 11d, (5-chloro-2,4-dihydroxyphenyl) (piperazin-1-yl)methanone]
LogP
  logP: 0.65
H1975
  inhibition at 10 µM: 0%
  inhibition at 30 µM: 0%

## O=C1CN(C(=O)c2cc(Cl)c(O)cc2O)CCN1 [Compound 11g, 4-(5-chloro-2,4-dihydroxybenzoyl)piperazin-2-one]
LogP
  logP: 0.45
H1975
  inhibition at 10 µM: 0%
  inhibition at 30 µM: 0%

## COc1cc(CN(C)C(=O)c2cc(Cl)c(O)cc2O)cc(OC)c1OC [Compound 14f, 5-chloro-2,4-dihydroxy-N-methyl-N-(3,4,5-trimethoxybenzyl) benzamide]
H1975 cells; H1975, 3 days
  EC50: 73.1 µM
HSP90α
  IC50: 1460 nM

## CN(Cc1ccccc1)C(=O)c1cc(Cl)c(O)cc1O [Compound 14b, N-Benzyl-5-chloro-2,4-dihydroxy-N-methylbenzamide]
H1975 cells; Homo sapiens, NCI-H1975, 72 h
  EC50: 35.5 µM
HSP90α
  IC50: 413 nM

## CN(Cc1ccc2c(c1)OCO2)C(=O)c1cc(Cl)c(O)cc1O [Compound 14e, N-(benzo[d][1,3]dioxol-5-ylmethyl)-5-chloro-2,4-dihydroxy-N-methylbenzamide]
H1975 cells; Homo sapiens, NCI-H1975, 72 h
  EC50: 103 µM
HSP90α
  IC50: 585 nM

## O=C(c1cc(Cl)c(O)cc1O)N1CCCC1 [Compound 11a, (5-chloro-2,4-dihydroxyphenyl) (pyrrolidin-1-yl)methanone]
LogP
  logP: 1.13
H1975
  inhibition at 10 µM: 8.1%
  inhibition at 30 µM: 22.1%

## O=C1CCN(C(=O)c2cc(Cl)c(O)cc2O)CC1 [Compound 11i, 1-(5-chloro-2,4-dihydroxybenzoyl)piperidin-4-one]
LogP
  logP: 0.6

## COc1cc(CN(C)C(=O)c2cc(Cl)c(O)cc2O)c(Br)c(OC)c1OC [Compound 14h, N-(2-bromo-3,4,5-trimethoxybenzyl)-5-chloro-2,4-dihydroxy-N-methylbenzamide]
H1975 cells; Homo sapiens, NCI-H1975, 72 h
  EC50: 34.3 µM
HSP90α
  IC50: 528 nM

## CCCNC(=O)c1ccc(CN(C)C(=O)c2cc(Cl)c(O)cc2O)cc1 [Compound 21c, 5-chloro-2,4-dihydroxy-N-methyl-N-(4-(propylcarbamoyl)benzyl)benzamide]
H1975 cells; Homo sapiens, NCI-H1975, 72 h
  EC50: 20.8 µM
HSP90α
  IC50: 454 nM

## Cc1cccc(CN(C)C(=O)c2cc(Cl)c(O)cc2O)c1 [Compound 14i, 5-chloro-2,4-dihydroxy-N-methyl-N-(3-methylbenzyl)benzamide]
H1975 cells; Homo sapiens, NCI-H1975, 72 h
  EC50: 47.5 µM

## CN1CCN(C(=O)c2cc(Cl)c(O)cc2O)CC1 [Compound 11e, (5-chloro-2,4-dihydroxyphenyl)(4-methylpiperazin-1-yl)methanone]
LogP
  logP: 1.23
H1975
  inhibition at 10 µM: 26.3%
  inhibition at 30 µM: 48.7%

## O=C(c1cc(Cl)c(O)cc1O)N1CCOCC1 [Compound 11c, (5-chloro-2,4-dihydroxyphenyl) (morpholino)methanone]
LogP
  logP: 0.66
H1975
  inhibition at 10 µM: 24.3%
  inhibition at 30 µM: 44%

## CNC(=O)c1ccc(CN(C)C(=O)c2cc(Cl)c(O)cc2O)cc1 [Compound 21a, 5-chloro-2,4-dihydroxy-N-methyl-N-(4-(methylcarbamoyl)benzyl) benzamide]
H1975 cells; H1975, 3 days
  EC50: 34.8 µM
HSP90α
  IC50: 496 nM

## CC(=O)N1CCN(C(=O)c2cc(Cl)c(O)cc2O)CC1 [Compound 11f, 1-(4-(5-chloro-2,4-dihydroxybenzoyl)piperazin-1-yl)ethanone]
LogP
  logP: 0.25
H1975
  inhibition at 10 µM: 0%
  inhibition at 30 µM: 10.5%

## Cc1ccccc1CN(C)C(=O)c1cc(Cl)c(O)cc1O [Compound 16a, 5-chloro-2,4-dihydroxy-N-methyl-N-(2-methylbenzyl)benzamide]
H1975 cells; Homo sapiens, NCI-H1975, 72 h
  EC50: 49.3 µM

## O=C1CCN(C(=O)c2cc(Cl)c(O)cc2O)C1 [Compound 11h, 1-(5-chloro-2,4-dihydroxybenzoyl) pyrrolidin-3-one]
LogP
  logP: 0.84
H1975
  inhibition at 10 µM: 0%
  inhibition at 30 µM: 0%

## COc1ccc(CN(C)C(=O)c2cc(Cl)c(O)cc2O)cc1 [Compound 14c, 5-chloro-2,4-dihydroxy-N-(4-methoxybenzyl)-N-methylbenzamide]
H1975 cells; Homo sapiens, NCI-H1975, 72 h
  EC50: 16.7 µM
HSP90α
  IC50: 135 nM

## COc1ccc(CN(C)C(=O)c2cc(Cl)c(O)cc2O)cc1OC [Compound 14d, 5-chloro-N-(3,4-dimethoxybenzyl)-2,4-dihydroxy-N-methylbenzamide]
H1975 cells; Homo sapiens, NCI-H1975, 72 h
  EC50: 33.4 µM
HSP90α
  IC50: 362 nM

## CNC(=O)c1ccc(CN(C)C(=O)c2cc(C(C)C)c(O)cc2O)cc1 [Compound 21d, 2,4-dihydroxy-5-isopropyl-N-methyl-N-(4-(methylcarbamoyl)benzyl) benzamide]
H1975 cells; H1975, 3 days
  EC50: 0.83 µM
HSP90α
  IC50: 11.4 nM

## CN1CCN(C(=O)c2cc(Cl)c(O)cc2O)C(c2ccccc2)C1 (centres unmarked) [Compound 11j, (5-chloro-2,4-dihydroxyphenyl)(4-methyl-2-phenylpiperazin-1-yl)methanone]
LogP
  logP: 3.22

## COc1cc(CN(C)C(=O)c2cc(Cl)c(O)cc2O)c(Cl)c(OC)c1OC [Compound 14g, 5-chloro-N-(2-chloro-3,4,5-trimethoxybenzyl)-2,4-dihydroxy-N-methylbenzamide]
H1975 cells; Homo sapiens, NCI-H1975, 72 h
  EC50: 33.8 µM
HSP90α
  IC50: 429 nM

## O=C(NCc1ccccc1)c1cc(Cl)c(O)cc1O [Compound 14a, N-Benzyl-5-chloro-2,4-dihydroxybenzamide]
H1975 cells; Homo sapiens, NCI-H1975, 72 h
  EC50: 86.2 µM

## CCNC(=O)c1ccc(CN(C)C(=O)c2cc(Cl)c(O)cc2O)cc1 [Compound 21b, 5-chloro-N-(4-(ethylcarbamoyl)benzyl)-2,4-dihydroxy-N-methylbenzamide]
H1975 cells; Homo sapiens, NCI-H1975, 72 h
  EC50: 21.7 µM
HSP90α
  IC50: 612 nM

## CCNC(=O)c1ccc(CN(C)C(=O)c2cc(C(C)C)c(O)cc2O)cc1 [Compound 21e, N-(4-(ethylcarbamoyl)benzyl)-2,4-dihydroxy-5-isopropyl-N-methylbenzamide]
H1975 cells; Homo sapiens, NCI-H1975, 72 h
  EC50: 0.46 µM
HSP90α
  IC50: 6.5 nM
